What is called EC50 is the concentration at which the effect is half-maximal. For orientation: CC50 means the concentration giving 50% cytotoxicity.

Data set [1] concerns Human immunodeficiency virus 1. Nature of the data set: Anti-HIV activity against wild type HIV-1 IIIB infected in human MT4 cells assessed as protection against virus-induced cytopathic effect incubated for 5 days by spectrophotometric based MTT assay. The data set is classed as functional, organism-based. The conditions noted are these: Human immunodeficiency virus 1, IIIB, MT4, 120 h. In general terms: Damage to the host cells serves as the signal in cytopathic effect assays.

Data set [2] concerns Human immunodeficiency virus 2. Kind of data set: Anti-HIV activity against HIV-2 ROD infected in human MT-4 cells assessed as protection against virus-induced cytopathic effect incubated for 5 days by spectrophotometric based MTT assay. It counts as functional, organism-based. Conditions: Human immunodeficiency virus 2, ROD, MT4, 120 h.
Data set [3] is described as follows: Selectivity ratio of EC50 for wild type HIV-1 IIIB infected in human MT4 cells to EC50 for HIV-2 ROD infected in human MT-4 cells assessed as protection against virus-induced cytopathic effect incubated for 5 days by spectrophotometric based MTT assay. The data set is classed as functional. The conditions noted are these: time 5 day.
Data set [4] in a line: Selectivity index, ratio of CC50 for human MT4 cells to EC50 for wild type HIV-1 IIIB infected in human MT4 cells. The conditions noted are these: read-out: Selectivity Index. It counts as toxicity, cell-based.
The subject of the next data set is MT4. Kind of data set: Cytotoxicity against human MT4 cells assessed as reduction in cell viability incubated for 5 days by spectrophotometric based MTT assay. The data set is classed as functional. The conditions noted are these: MT4, 120 h, time 5 day.
Data set [5] can be described thus: Selectivity index, ratio of CC50 for human MT4 cells to EC50 for HIV-2 ROD infected in human MT-4 cells. It counts as toxicity, cell-based. The conditions noted are these: read-out: Selectivity Index.
For data set [6], the target named is Structural capsid protein (Human immunodeficiency virus 1) (UniProt Q76129). Nature of the data set: Binding affinity to monomeric HIV-1 NL4.3 capsid protein assessed as dissociation rate (Koff) by SPR assay. Conditions: filed as modulator.
For data set [7] the target is unchanged. Nature of the data set: Binding affinity to monomeric HIV-1 NL4.3 capsid protein assessed as residence time by SPR assay. Conditions: filed as modulator.
Data set [8] has the same target. Nature of the data set: Binding affinity to hexameric HIV-1 NL4.3 capsid protein assessed as dissociation rate (Koff) by SPR assay. The conditions noted are these: filed as modulator. A general note: Surface plasmon resonance follows binding to a sensor surface in real time, without labels.
The target is the same in data set [9]. Kind of data set: Binding affinity to hexameric HIV-1 NL4.3 capsid protein assessed as residence time by SPR assay. Conditions: filed as modulator.
Data set [10] is described as follows: Metabolic stability in human liver microsomes assessed as intrinsic clearance at 1 uM incubated for 60 mins by LC-MS/MS analysis. The data set is classed as ADME, Microsome. The conditions noted are these: read-out: CLH. On the technique in general: Microsomes from liver hold many membrane-bound enzymes, among them those of drug oxidation.

Structural capsid protein (Human immunodeficiency virus 1), sequence (Q76129 as listed by the source): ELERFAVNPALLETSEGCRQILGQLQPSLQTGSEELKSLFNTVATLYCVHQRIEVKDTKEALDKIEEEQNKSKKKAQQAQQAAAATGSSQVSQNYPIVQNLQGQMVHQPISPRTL

With `CN(C(=O)[C@H](Cc1cc(F)cc(F)c1)NC(=O)Cc1c[nH]c2cccc(Br)c12)c1ccc2scnc2c1`, the half-maximal effective concentration (EC50) was 166 nM in [1] and 1080 nM in data set [2]. Further, the “Ratio EC50” value in data set [3] amounted to 0.15. In addition, the results for the selectivity ratio in [4] and in [5] were 133 and 20.5, respectively. For the same molecule, the CC50 with MT4 turned out to be 22200 nM.
`Cc1ccc2[nH]cc(CC(=O)N[C@@H](Cc3cc(F)cc(F)c3)C(=O)N(C)c3ccc4scnc4c3)c2c1`: the EC50 turned out to be 42.4 nM in data set [1] and 193 nM in [2]. For the same molecule, in data set [3], the “Ratio EC50” value amounted to 0.22. Also, the selectivity ratio in [4] came out at 621; in [5] it was 137. For the same molecule, the CC50 in the data set with MT4 came out at 26400 nM.
In the case of `CN(C(=O)[C@H](Cc1cc(F)cc(F)c1)NC(=O)Cc1c[nH]c2cc(F)ccc12)c1ccc2scnc2c1`, the EC50 was 16.8 nM in data set [1] and 165 nM in data set [2]. Further, in data set [3], the “Ratio EC50” value is recorded as 0.1. Also, the selectivity ratio in data set [4] is 1500; in [5], 153. For the same molecule, in the data set on MT4, the cytotoxic concentration (CC50) stood at 25200 nM.
As for `CN(C(=O)[C@H](Cc1cc(F)cc(F)c1)NC(=O)Cc1c[nH]c2cc(Br)ccc12)c1ccc2scnc2c1`, the half-maximal effective concentration (EC50) in data set [1] turned out to be 27.4 nM; in data set [2] it was 68.6 nM. Moreover, in data set [3], the “Ratio EC50” value worked out at 0.4. The selectivity ratio in data set [4] was 848; in [5], 339. For the same molecule, the half-maximal cytotoxic concentration (CC50) in the data set with MT4 was 23300 nM.
With `CN(C(=O)[C@H](Cc1cc(F)cc(F)c1)NC(=O)C(=O)c1c[nH]c2ccccc12)c1ccc2scnc2c1`, the EC50 in data set [1] and in data set [2] was > 23600 nM throughout. Besides, the selectivity ratio in [4] and in [5] was < 0.01 in each case. Moreover, the CC50 in the data set on MT4 is 23600 nM.
For `COc1ccc(N(C)C(=O)[C@H](Cc2ccccc2)NC(=O)CN2CCN(S(=O)(=O)c3ccc(N)cc3)CC2=O)cc1`, in data set [2], the concentration for a half-maximal effect (EC50) was 13.6 nM. The half-maximal cytotoxic concentration (CC50) with MT4 was found to be 114000 nM. The K in data set [6] is 2.34 10^-1/s; in data set [8], 2.01 10^-2/s. The TIME in data set [7] stood at 0.00118 h; in [9], 0.0138 h. Moreover, the CLint scaled at 1 µM in data set [10] was 344 mL/min/kg.
As to `Cc1[nH]c2ccc(F)cc2c1CC(=O)N[C@@H](Cc1cc(F)cc(F)c1)C(=O)N(C)c1ccc2scnc2c1`, the half-maximal effective concentration (EC50) in [1] came out at 170 nM; in [2] it was 745 nM. The “Ratio EC50” value in data set [3] is listed as 0.23. Moreover, the figures for the selectivity ratio in data set [4] and in data set [5] were 147 and 33.4, respectively. In the data set on MT4, the CC50 came out at 24900 nM.
`Cc1[nH]c2ccc(Cl)cc2c1CC(=O)N[C@@H](Cc1cc(F)cc(F)c1)C(=O)N(C)c1ccc2scnc2c1`: the results for the EC50 in data set [1] and in data set [2] were 199 nM and 633 nM, respectively. For the same molecule, the “Ratio EC50” value in [3] stood at 0.31. Moreover, the selectivity ratio amounted to 133 in data set [4] and 41.7 in data set [5]. In addition, in the data set on MT4, the CC50 was determined as 26400 nM.
`CN(C(=O)[C@H](Cc1cc(F)cc(F)c1)NC(=O)Cc1c[nH]c2cccc(Cl)c12)c1ccc2scnc2c1`: the EC50 was determined as 186 nM in [1] and 1930 nM in data set [2]. The “Ratio EC50” value in data set [3] turned out to be 0.1. For the same molecule, the selectivity ratio in data set [4] was 132; in data set [5], 12.7. Moreover, the half-maximal cytotoxic concentration (CC50) in the data set with MT4 was 24400 nM.
For `CN(C(=O)[C@H](Cc1cc(F)cc(F)c1)NC(=O)Cc1c[nH]c2ccc(Cl)cc12)c1ccc2scnc2c1`, the EC50 in [1] stood at 16.3 nM; in data set [2], 158 nM. Besides, the “Ratio EC50” value in [3] was 0.1. The selectivity ratio in data set [4] came out at 1450; in data set [5] it was 150. Further, the CC50 with MT4 is 23700 nM.
Turning to `COC(=O)c1c(C)ccn1CC(=O)N[C@@H](Cc1cc(F)cc(F)c1)C(=O)N(C)c1ccc2scnc2c1`, the EC50 turned out to be 1030 nM in [1] and 1920 nM in data set [2]. For the same molecule, the “Ratio EC50” value in data set [3] is 0.53. Moreover, the figures for the selectivity ratio in data set [4] and in [5] were 124 and 66.3, respectively. Also, in the data set on MT4, the CC50 turned out to be 127000 nM.
For the molecule `CN(C(=O)[C@H](Cc1cc(F)cc(F)c1)NC(=O)Cc1c[nH]c2cc(Cl)ccc12)c1ccc2scnc2c1`, the EC50 in data set [1] was 37.1 nM; in data set [2] it was 126 nM. Also, the “Ratio EC50” value in data set [3] was found to be 0.29. The results for the selectivity ratio in [4] and in [5] were 669 and 197, respectively. Also, in the data set on MT4, the half-maximal cytotoxic concentration (CC50) stood at 24800 nM.
In the case of `Cc1cc(C(F)(F)F)nn1CC(=O)N[C@@H](Cc1cc(F)cc(F)c1)C(=O)N(C)c1ccc2scnc2c1`, the EC50 came out at 223 nM in data set [1] and 912 nM in [2]. Moreover, the “Ratio EC50” value in data set [3] stood at 0.24. Also, the figures for the selectivity ratio in data set [4] and in data set [5] were 543 and 133, respectively. In addition, the CC50 with MT4 turned out to be 121000 nM.
In the case of `CN(C(=O)[C@H](Cc1cc(F)cc(F)c1)NC(=O)Cc1c[nH]c2ccc(F)cc12)c1ccc2scnc2c1`, the results for the EC50 in data set [1] and in data set [2] were 10.1 nM and 144 nM, respectively. The “Ratio EC50” value in data set [3] was 0.07. Further, the values for the selectivity ratio in data set [4] and in data set [5] were 2510 and 177, respectively. Further, in the data set with MT4, the 50% cytotoxic concentration (CC50) was determined as 25500 nM.
Turning to `Cc1cc(C)n(CC(=O)N[C@@H](Cc2cc(F)cc(F)c2)C(=O)N(C)c2ccc3scnc3c2)n1`, the concentration for a half-maximal effect (EC50) in data set [1] is 269 nM; in [2] it was 3060 nM. Further, the “Ratio EC50” value in data set [3] came to 0.09. The selectivity ratio was > 962 in [4] and > 84.5 in [5]. Moreover, in the data set with MT4, the CC50 is > 259000 nM.
As for `CN(C(=O)[C@H](Cc1cc(F)cc(F)c1)NC(=O)Cc1c[nH]c2ccc(Br)cc12)c1ccc2scnc2c1`, the concentration giving a half-maximal response (EC50) in data set [1] stood at 32.6 nM; in data set [2] it was 171 nM. In addition, in data set [3], the “Ratio EC50” value is listed as 0.19. The selectivity ratio in [4] turned out to be 718; in data set [5] it was 137. For the same molecule, the CC50 with MT4 was 23400 nM.
Consider `COc1ccc2[nH]cc(CC(=O)N[C@@H](Cc3cc(F)cc(F)c3)C(=O)N(C)c3ccc4scnc4c3)c2c1`, for which the half-maximal effective concentration (EC50) in data set [1] came to 22.4 nM; in [2] it was 159 nM. The “Ratio EC50” value in [3] is on record as 0.14. The selectivity ratio is 3260 in data set [4] and 460 in [5]. Moreover, the CC50 with MT4 was determined as 73200 nM.
Consider `CN(C(=O)[C@H](Cc1cc(F)cc(F)c1)NC(=O)Cc1c[nH]c2ccccc12)c1ccc2scnc2c1`, for which the half-maximal effective concentration (EC50) in data set [1] stood at 39.6 nM; in data set [2], 218 nM. Besides, the “Ratio EC50” value in data set [3] is on record as 0.18. The selectivity ratio in data set [4] was determined as 842; in data set [5], 153. Moreover, the 50% cytotoxic concentration (CC50) with MT4 stood at 33400 nM.
In the case of `Cc1[nH]c2ccccc2c1CC(=O)N[C@@H](Cc1cc(F)cc(F)c1)C(=O)N(C)c1ccc2scnc2c1`, the EC50 in data set [1] came to 270 nM; in [2], 887 nM. Further, the “Ratio EC50” value in [3] came out at 0.3. The selectivity ratio in [4] amounted to 108; in data set [5], 32.8. In the data set on MT4, the CC50 is 29100 nM.
As to `COc1ccc2[nH]c(C)c(CC(=O)N[C@@H](Cc3cc(F)cc(F)c3)C(=O)N(C)c3ccc4scnc4c3)c2c1`, the EC50 in data set [1] was 32.8 nM; in [2], 365 nM. In addition, the “Ratio EC50” value in data set [3] came out at 0.09. In addition, the selectivity ratio in data set [4] came to 900; in data set [5], 81. Moreover, the CC50 with MT4 is 29500 nM.
Consider `CN(C(=O)[C@H](Cc1cc(F)cc(F)c1)NC(=O)Cc1c[nH]c2cccc(F)c12)c1ccc2scnc2c1`, for which the EC50 is 53.6 nM in data set [1] and 498 nM in [2]. Also, the “Ratio EC50” value in data set [3] was 0.11. Also, the selectivity ratio in [4] amounted to 439; in [5] it was 47.3. Moreover, the CC50 with MT4 came to 23500 nM.
In the case of `COc1ccc2c(CC(=O)N[C@@H](Cc3cc(F)cc(F)c3)C(=O)N(C)c3ccc4scnc4c3)c[nH]c2c1`, the EC50 in [1] is 127 nM; in [2], 224 nM. The “Ratio EC50” value in data set [3] is listed as 0.57. Further, the selectivity ratio is 300 in data set [4] and 170 in data set [5]. Moreover, the half-maximal cytotoxic concentration (CC50) with MT4 came out at 38200 nM.

The record behind these values is ChEMBL document CHEMBL6083251, “"Pseudosubstrate Envelope"/Free Energy Perturbation-Guided Design and Mechanistic Investigations of Benzothiazole HIV Capsid Modulators with High Ligand Efficiency” (J Med Chem, 2024).
